Measured values as given in patent US20170356895A1, “TOXICANT ASSAYS FOR CONSUMABLE PRODUCTS” (priority 2016, published 2017).

Test system: zebrafish (Danio rerio) AB strain embryos
Experiment: Acute toxicity testing of extracts using zebrafish embryos (mortality rate after 48 hr exposure)
Assay type: in vivo
Details: 3.7 mg/L
Procedure: Extracts prepared as described in Example 1 were tested for acute toxicity using zebrafish (Danio rerio) AB strain embryos. Chicken breast extracts were diluted into zebrafish embryo culture medium at 0.25, 0.50, 1.00, 2.00 and 4.00 μl/ml. Zebrafish AB strain embryos of 4-128 cell stages were exposed to extract dilutions in a 96-well plate at 1 embryo per well. Each concentration was tested with 20 embryos. Zebrafish embryo culture medium and 3.7 mg/L dichloroaniline were included as negative and positive controls, respectively. After 48 hr exposure at 26° C., zebrafish embryos were observed under a stereomicroscope and fish embryos that were coagulated, tail not detached, and having no heart beat were marked as dead. Mortality rate for each concentration was calculated as the acute toxicity endpoint. The mortality rate for the negative control was 0% and for the positive control was 65%.
The acute toxicity of milk powder extracts prepared as described in Example 4 were tested for acute toxicity using zebrafish (Danio rerio) AB strain embryos. Milk powder extracts were diluted into zebrafish embryo culture medium at 0.33, 0.50, 0.76, 1.74 and 4.00 μl/ml. Zebrafish AB strain embryos of 4-128 cell stages were exposed to extract dilutions in a 96-well plate with 1 embryo per well. […] Mortality rate of each concentration was calculated as the acute toxicity endpoint. […]

Structure (SMILES): Nc1ccc(Cl)c(Cl)c1 [3,4-dichloroaniline]
- Mortality rate for positive control (48-hr exposure at 26° C., Example 5 (milk powder test)): 60%
- Mortality rate for the positive control (48 hr exposure at 26° C., Example 2 (chicken breast test)): 65%
